Holding throughout (assay type): functional
The subject of one assay is Aspergillus niger. Description: Antifungal activity against Aspergillus niger clinical isolates after 48 hrs by broth microdilution method.
Another assay relates to Aspergillus candidus. Description: Antifungal activity against Aspergillus candidus clinical isolates after 48 hrs by broth microdilution method. (Broth dilution looks for growth in wells or tubes with falling amounts of substance.)
Another assay has as its system Aspergillus nidulans. Put plainly: Antifungal activity against Aspergillus nidulans clinical isolates after 48 hrs by broth microdilution method.
For another assay, the system named is Aspergillus ochraceus. Description: Antifungal activity against Aspergillus ochraceus clinical isolates after 48 hrs by broth microdilution method.
The test system of the next assay is Aspergillus wentii. Description: Antifungal activity against Aspergillus wentii clinical isolates after 48 hrs by broth microdilution method.
For the next assay, the system named is Aspergillus sp. Description: Antifungal activity against Aspergillus sp. clinical isolates after 48 hrs by broth microdilution method.
The test system of the next assay is Alternaria alternata. Description: Antifungal activity against Alternaria alternata clinical isolates after 48 hrs by broth microdilution method.
A further assay relates to Fusarium solani. Description: Antifungal activity against Fusarium solani species complex clinical isolates after 48 hrs by broth microdilution method.
The next assay relates to Fusarium verticillioides. Description: Antifungal activity against Fusarium moniliforme species complex clinical isolates after 48 hrs by broth microdilution method.
A further assay relates to Fusarium avenaceum. Description: Antifungal activity against Fusarium avenaceum species complex clinical isolates after 48 hrs by broth microdilution method.
Another assay relates to Fusarium oxysporum. Description: Antifungal activity against Fusarium oxysporum clinical isolates after 48 hrs by broth microdilution method.
A short description of assay [1]: Antifungal activity against Fusarium poae clinical isolates after 48 hrs by broth microdilution method.
Assay [2] can be described thus: Antifungal activity against Fusarium lateritium clinical isolates after 48 hrs by broth microdilution method.
The test system of a further assay is Fusarium sp. Put plainly: Antifungal activity against Fusarium sp. clinical isolates after 48 hrs by broth microdilution method.
The test system of a further assay is Aspergillus flavus. Description: Antifungal activity against Aspergillus flavus species complex clinical isolates after 48 hrs by broth microdilution method.
For a further assay, the system named is Aspergillus fumigatus. Description: Antifungal activity against Aspergillus fumigatus species complex clinical isolates after 48 hrs by broth microdilution method.
A further assay has as its system Aspergillus oryzae. Put plainly: Antifungal activity against Aspergillus oryzae species complex clinical isolates after 48 hrs by broth microdilution method.
A further assay concerns Aspergillus versicolor. Put plainly: Antifungal activity against Aspergillus versicolor species complex clinical isolates after 48 hrs by broth microdilution method.
Where [3] appears, read: Fusarium sp., 48 h, read-out: MIC90.

In brackets after ≈: the same amount, converted by molar mass.

The term MIC denotes the lowest concentration that inhibits growth of the organism. Higher therefore signals a need for much substance. The term MIC50 denotes an inhibitory concentration at the 50% level, which refers to growth in some studies and to a panel of isolates in others. Read a low MIC50 as greater potency. What is called MIC90 is the lowest concentration that inhibits either 90% of growth or 90% of the strains tested, depending on the study. `C[C@@H]1[C@H](O)[C@@H](C)/C=C/C=C/C=C/C=C/C=C/C=C/C=C/[C@H](O[C@@H]2O[C@H](C)[C@@H](O)[C@H](N)[C@@H]2O)C[C@@H]2O[C@](O)(C[C@@H](O)C[C@@H](O)[C@H](O)CC[C@@H](O)C[C@@H](O)CC(=O)O[C@H]1C)C[C@H](O)[C@H]2C(=O)O` [AMPHOTERICIN B]: the MIC in the assay on Aspergillus niger, in the assay on Aspergillus candidus, with Aspergillus nidulans, against Aspergillus ochraceus, with Aspergillus wentii and against Aspergillus sp. was 1 µg/mL (≈ 1.08 µM) throughout. In addition, the minimum inhibitory concentration (MIC) is 0.125 µg/mL (≈ 0.135 µM) against Alternaria alternata; 1 µg/mL (≈ 1.08 µM) with Fusarium solani; 2 µg/mL (≈ 2.16 µM) in the assay on Fusarium verticillioides; 2 µg/mL (≈ 2.16 µM) with Fusarium avenaceum; 1 µg/mL (≈ 1.08 µM) against Fusarium oxysporum; 1 µg/mL (≈ 1.08 µM) against Fusarium sp. (Fusarium sp., 48 h). The MIC in the assay with Aspergillus flavus is 2 µg/mL (≈ 2.16 µM); in the assay with Aspergillus fumigatus, 1 µg/mL (≈ 1.08 µM); in the assay on Aspergillus oryzae, 1 µg/mL (≈ 1.08 µM); with Aspergillus versicolor, 1 µg/mL (≈ 1.08 µM). Besides, the MIC50 with Aspergillus niger, against Aspergillus candidus, against Aspergillus nidulans, in the assay on Aspergillus ochraceus, in the assay on Aspergillus wentii and with Aspergillus sp. was 1 µg/mL (≈ 1.08 µM) in each case. Further, the MIC50 against Alternaria alternata came out at 0.125 µg/mL (≈ 0.135 µM); in the assay on Fusarium solani it was 1 µg/mL (≈ 1.08 µM); against Fusarium verticillioides, 2 µg/mL (≈ 2.16 µM); against Fusarium avenaceum it was 2 µg/mL (≈ 2.16 µM); against Fusarium oxysporum, 1 µg/mL (≈ 1.08 µM); in [1], 1 µg/mL (≈ 1.08 µM). Besides, the MIC50 was determined as 1 µg/mL (≈ 1.08 µM) in assay [2]; 1 µg/mL (≈ 1.08 µM) in the assay with Fusarium sp. (Fusarium sp., 48 h); 2 µg/mL (≈ 2.16 µM) in the assay with Aspergillus flavus; 1 µg/mL (≈ 1.08 µM) against Aspergillus fumigatus; 1 µg/mL (≈ 1.08 µM) against Aspergillus oryzae; 1 µg/mL (≈ 1.08 µM) in the assay with Aspergillus versicolor. Besides, the MIC90 in the assay on Aspergillus niger, in the assay with Aspergillus candidus, in the assay with Aspergillus nidulans, with Aspergillus ochraceus, with Aspergillus wentii and in the assay with Aspergillus sp. was 2 µg/mL (≈ 2.16 µM) in each case. The MIC90 came to 0.125 µg/mL (≈ 0.135 µM) in the assay on Alternaria alternata; 2 µg/mL (≈ 2.16 µM) in the assay with Fusarium solani; 2 µg/mL (≈ 2.16 µM) in the assay on Fusarium verticillioides; 4 µg/mL (≈ 4.33 µM) in the assay with Fusarium avenaceum; 2 µg/mL (≈ 2.16 µM) against Fusarium oxysporum; 2 µg/mL (≈ 2.16 µM) in [1]. The MIC90 (in assay [2]; in the assay on Fusarium sp.; in the assay with Fusarium sp. (setting [3]); in the assay with Aspergillus flavus; in the assay with Aspergillus fumigatus; in the assay with Aspergillus oryzae) was 2 µg/mL (≈ 2.16 µM) in each case. Also, the MIC90 against Aspergillus versicolor turned out to be 2 µg/mL (≈ 2.16 µM).
For `CC[C@H](C)C[C@H](C)CCCCCCCCC(=O)N[C@H]1C[C@@H](O)[C@@H](NCCN)NC(=O)[C@@H]2[C@@H](O)CCN2C(=O)[C@H]([C@H](O)CCN)NC(=O)[C@H]([C@H](O)[C@@H](O)c2ccc(O)cc2)NC(=O)[C@@H]2C[C@@H](O)CN2C(=O)[C@H]([C@@H](C)O)NC1=O` [CASPOFUNGIN], the MIC90 in the assay on Fusarium sp. (setting [3]) was greater than 16 µg/mL.
On the same count and under the same terms, the value for `OC(Cn1cncn1)(Cn1cncn1)c1ccc(F)cc1F` [FLUCONAZOLE] was greater than 256 µg/mL.
For the compound `Nc1nc(=O)[nH]cc1F` [FLUCYTOSINE], the MIC90 with Fusarium sp. (setting [3]) was greater than 64 µg/mL.
The same measure, in the same setting: to `CCC(C)n1ncn(-c2ccc(N3CCN(c4ccc(OCC5COC(Cn6cncn6)(c6ccc(Cl)cc6Cl)O5)cc4)CC3)cc2)c1=O` (stereo not given) [ITRACONAZOLE] belongs greater than 16 µg/mL; to `CC(=O)N1CCN(c2ccc(OCC3COC(Cn4ccnc4)(c4ccc(Cl)cc4Cl)O3)cc2)CC1` (stereo not given) [KETOCONAZOLE], greater than 16 µg/mL.
In the case of `C[C@@H]1C/C=C/C=C/C=C/C=C/[C@H](O[C@@H]2O[C@H](C)[C@@H](O)[C@H](N)[C@@H]2O)C[C@@H]2O[C@](O)(C[C@@H](O)C[C@H]3O[C@@H]3/C=C/C(=O)O1)C[C@H](O)[C@H]2C(=O)O` [NATAMYCIN], the MIC against Aspergillus niger amounted to 4 µg/mL (≈ 6.01 µM); against Aspergillus candidus, 4 µg/mL (≈ 6.01 µM); with Aspergillus nidulans, 4 µg/mL (≈ 6.01 µM); in the assay on Aspergillus ochraceus, 4 µg/mL (≈ 6.01 µM); in the assay with Aspergillus wentii it was 4 µg/mL (≈ 6.01 µM); in the assay on Aspergillus sp., 32 µg/mL (≈ 48.1 µM). Besides, the MIC with Alternaria alternata was determined as 4 µg/mL (≈ 6.01 µM); in the assay on Fusarium solani it was 4 µg/mL (≈ 6.01 µM); against Fusarium verticillioides, 4 µg/mL (≈ 6.01 µM); against Fusarium avenaceum, 8 µg/mL (≈ 12 µM); in the assay with Fusarium oxysporum it was 4 µg/mL (≈ 6.01 µM); against Fusarium sp. (Fusarium sp., 48 h) it was 4 µg/mL (≈ 6.01 µM). The MIC stood at 32 µg/mL (≈ 48.1 µM) in the assay with Aspergillus flavus, 4 µg/mL (≈ 6.01 µM) in the assay on Aspergillus fumigatus, 32 µg/mL (≈ 48.1 µM) against Aspergillus oryzae and 8 µg/mL (≈ 12 µM) in the assay with Aspergillus versicolor. In addition, the MIC50 with Aspergillus niger came out at 4 µg/mL (≈ 6.01 µM); with Aspergillus candidus, 4 µg/mL (≈ 6.01 µM); against Aspergillus nidulans, 4 µg/mL (≈ 6.01 µM); in the assay with Aspergillus ochraceus, 4 µg/mL (≈ 6.01 µM); with Aspergillus wentii, 4 µg/mL (≈ 6.01 µM); against Aspergillus sp. it was 32 µg/mL (≈ 48.1 µM). In addition, the MIC50 came to 4 µg/mL (≈ 6.01 µM) in the assay on Alternaria alternata; 4 µg/mL (≈ 6.01 µM) against Fusarium solani; 4 µg/mL (≈ 6.01 µM) with Fusarium verticillioides; 8 µg/mL (≈ 12 µM) in the assay with Fusarium avenaceum; 4 µg/mL (≈ 6.01 µM) against Fusarium oxysporum; 4 µg/mL (≈ 6.01 µM) in assay [1]. For the same compound, the MIC50 was determined as 4 µg/mL (≈ 6.01 µM) in assay [2]; 4 µg/mL (≈ 6.01 µM) against Fusarium sp. (Fusarium sp., 48 h); 32 µg/mL (≈ 48.1 µM) against Aspergillus flavus; 4 µg/mL (≈ 6.01 µM) against Aspergillus fumigatus; 32 µg/mL (≈ 48.1 µM) against Aspergillus oryzae; 8 µg/mL (≈ 12 µM) in the assay with Aspergillus versicolor. Moreover, the MIC90 with Aspergillus niger, against Aspergillus candidus, in the assay on Aspergillus nidulans, in the assay with Aspergillus ochraceus, in the assay with Aspergillus wentii and in the assay on Aspergillus sp. was 32 µg/mL (≈ 48.1 µM) each time. Also, the MIC90 in the assay with Alternaria alternata amounted to 4 µg/mL (≈ 6.01 µM); in the assay with Fusarium solani, 8 µg/mL (≈ 12 µM); with Fusarium verticillioides it was 8 µg/mL (≈ 12 µM); in the assay with Fusarium avenaceum, 8 µg/mL (≈ 12 µM); with Fusarium oxysporum it was 8 µg/mL (≈ 12 µM); in [1] it was 8 µg/mL (≈ 12 µM). Moreover, the MIC90 in assay [2] was determined as 8 µg/mL (≈ 12 µM); in the assay on Fusarium sp. it was 16 µg/mL (≈ 24 µM); with Fusarium sp. (setting [3]), 8 µg/mL (≈ 12 µM); in the assay on Aspergillus flavus, 32 µg/mL (≈ 48.1 µM); against Aspergillus fumigatus, 4 µg/mL (≈ 6.01 µM); against Aspergillus oryzae it was 32 µg/mL (≈ 48.1 µM). This compound returned an MIC90 against Aspergillus versicolor of 32 µg/mL (≈ 48.1 µM).
Take `CC[C@@H]([C@H](C)O)n1ncn(-c2ccc(N3CCN(c4ccc(OC[C@@H]5CO[C@@](Cn6cncn6)(c6ccc(F)cc6F)C5)cc4)CC3)cc2)c1=O` [POSACONAZOLE]: the MIC90 in the assay on Fusarium sp. (setting [3]) was greater than 8 µg/mL.
As to `CN(C/C=C/C#CC(C)(C)C)Cc1cccc2ccccc12` [TERBINAFINE], the MIC90 in the assay on Fusarium sp. (setting [3]) worked out at 8 µg/mL (≈ 27.5 µM).
On the same count and under the same terms, to `C[C@@H](c1ncncc1F)[C@](O)(Cn1cncn1)c1ccc(F)cc1F` [VORICONAZOLE] belongs 2 µg/mL (≈ 5.73 µM).
With THIMEROSAL, the MIC50 came to 0.0156 µg/mL against Aspergillus niger; 0.0156 µg/mL with Aspergillus candidus; 0.0156 µg/mL in the assay with Aspergillus nidulans; 0.0156 µg/mL with Aspergillus ochraceus; 0.0156 µg/mL in the assay with Aspergillus wentii; 0.0625 µg/mL in the assay with Aspergillus sp.. Besides, the MIC50 (with Alternaria alternata; against Fusarium solani; with Fusarium verticillioides; against Fusarium avenaceum; in the assay with Fusarium oxysporum; in assay [1]) was 0.0156 µg/mL each time. The MIC50 was determined as 0.0156 µg/mL in [2]; 0.0156 µg/mL with Fusarium sp.; 0.0625 µg/mL against Aspergillus flavus; 0.0313 µg/mL with Aspergillus fumigatus; 0.0625 µg/mL in the assay on Aspergillus oryzae; 0.0156 µg/mL in the assay with Aspergillus versicolor. Further, the MIC90 was found to be 0.0313 µg/mL against Aspergillus niger; 0.0313 µg/mL against Aspergillus candidus; 0.0313 µg/mL with Aspergillus nidulans; 0.0313 µg/mL against Aspergillus ochraceus; 0.0313 µg/mL against Aspergillus wentii; 0.0625 µg/mL against Aspergillus sp.. For the same compound, the MIC90 (in the assay on Alternaria alternata; in the assay on Fusarium solani; against Fusarium verticillioides; with Fusarium avenaceum; in the assay on Fusarium oxysporum; in assay [1]) was 0.0313 µg/mL throughout. Further, the MIC90 in assay [2] amounted to 0.0313 µg/mL; in the assay on Fusarium sp., 0.0313 µg/mL; against Aspergillus flavus, 0.0625 µg/mL; in the assay with Aspergillus fumigatus, 0.0625 µg/mL; in the assay with Aspergillus oryzae it was 0.0625 µg/mL; against Aspergillus versicolor, 0.0625 µg/mL.

The values above are taken from ChEMBL document CHEMBL1212747, “In vitro activity of thimerosal against ocular pathogenic fungi” (2010).
